The values that follow come from patent publication US20080009025A1, “PROTEIN KINASE REGULATION” (priority 1999, published 2008).

Where a SMILES comes first, the peptide text is derived from it.

One test deals with T1, PDK1 (Homo sapiens, UniProt O15530).
T1 construct: Full length PDK1 (residues 1-556); made in house; host or cells: 293 cells
T1 sequence (O15530 52-556): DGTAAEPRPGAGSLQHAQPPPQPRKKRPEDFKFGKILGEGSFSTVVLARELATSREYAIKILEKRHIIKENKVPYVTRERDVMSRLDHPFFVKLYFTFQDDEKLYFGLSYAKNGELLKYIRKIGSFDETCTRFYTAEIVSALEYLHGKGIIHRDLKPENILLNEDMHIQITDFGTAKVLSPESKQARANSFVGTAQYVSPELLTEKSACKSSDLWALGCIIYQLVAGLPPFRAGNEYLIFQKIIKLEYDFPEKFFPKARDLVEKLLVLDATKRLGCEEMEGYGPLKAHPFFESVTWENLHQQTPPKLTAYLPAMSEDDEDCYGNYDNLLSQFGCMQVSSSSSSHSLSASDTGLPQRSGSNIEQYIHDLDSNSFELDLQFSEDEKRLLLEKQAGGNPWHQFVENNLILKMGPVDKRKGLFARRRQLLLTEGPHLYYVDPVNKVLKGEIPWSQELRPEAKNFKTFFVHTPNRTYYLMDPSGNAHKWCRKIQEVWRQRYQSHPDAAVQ
Briefly: Surface plasmon resonance binding of His-PDK1 to immobilised p70 S6K. The conditions noted are these: 10 μM peptide. The protocol: FIG. 6. Quantitative analysis of the binding of PDK1 to p70 S6K. Surface Plasmon Resonance measurements were carried out on a BiaCore instrument as described in the Methods. His-PDK1 was injected at the indicated concentrations over (A) 2000 RUs of p70 S6K-T2 (closed squares), or 412Ep70 S6K-T2 (closed circles) which was immobolised by amine coupling to a CM5 Sensorchip. Experiments carried out in the presence of either 10 μM wild type PIF peptide (hexagons) or 10 μM D978A mutant PIF peptide (triangles) are indicated. The responses at steady state binding were recorded. All data are single determinations from a representative experiment that was repeated at least 3 times with similar results.
Surface plasmon resonance measurements of PDK1 binding to p70 S6 kinase. p70 S6K-T2 and T412Ep70S6K-T2 mutant were amine coupled to a CM5 sensor chip (BIAcore AB) according to the manufacturer's instructions. The indicated concentrations of His-PDK1 was injected over the chip at a flow rate of 30 μl/min and the steady-state binding determined, in the presence or absence of PIF peptide. The apparent equilibrium dissociation constant (Kd) for the binding of His-PDK1 to p70 S6 kinase was determined by fitting the increase in steady-state binding upon increased PDK1 concentration to a rectangular hyperbola using SigmaPlot 4 (SPSS Inc). […]

Another test deals with T2, Myc-PDK1 (Homo sapiens, UniProt O15530).
T2 construct: expressed in transfected cells; host or cells: 293 cells
T2 sequence (O15530 1-556): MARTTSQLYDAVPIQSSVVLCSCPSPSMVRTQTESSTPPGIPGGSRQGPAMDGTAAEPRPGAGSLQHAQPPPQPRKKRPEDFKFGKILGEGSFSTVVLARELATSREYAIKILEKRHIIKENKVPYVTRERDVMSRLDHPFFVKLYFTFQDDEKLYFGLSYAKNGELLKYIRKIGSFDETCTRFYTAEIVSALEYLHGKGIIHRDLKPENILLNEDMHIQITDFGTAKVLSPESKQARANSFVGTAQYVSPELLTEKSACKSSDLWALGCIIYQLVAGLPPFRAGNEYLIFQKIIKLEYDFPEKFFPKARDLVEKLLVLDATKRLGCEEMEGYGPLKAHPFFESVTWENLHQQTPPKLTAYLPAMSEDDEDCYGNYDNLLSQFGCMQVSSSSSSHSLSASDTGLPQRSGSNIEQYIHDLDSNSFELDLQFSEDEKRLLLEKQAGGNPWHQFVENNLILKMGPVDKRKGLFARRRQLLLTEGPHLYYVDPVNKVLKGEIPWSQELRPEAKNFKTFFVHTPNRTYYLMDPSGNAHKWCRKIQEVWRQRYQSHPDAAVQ
Briefly: Glutathione-Sepharose pull-down of Myc-PDK1 with GST-PIF from 293 cells. It is filed as binding. The protocol:
FIG. 9. Effect of mutation of conserved residues in the PIF-binding pocket of PDK1 on the ability to interact with PIF. 293 cells were transiently transfected with DNA constructs expressing GST-PIF and either wild type Myc-PDK1 or the indicated mutants of PDK1. 36 h post transfection the cells were lysed and GST-PIF purified by affinity chromatography on glutathione-Sepharose beads. 2 μg of each protein was electrophoresed on a 10% SDS/polyacrylamide gel and either stained with Coomassie blue (A and E) or immunoblotted using an anti Myc antibody to detect Myc-PDK1 (B and F). To establish that the wild type PDK1 and mutant proteins were expressed at a similar level, 10 μg of total cell lysate was electrophoresed on a 10% SDS/polyacrylamide gel and immunoblotted using anti-Myc antibodies (C and G). Duplicates of each condition are shown. Similar results were obtained in 3 to 5 separate experiments. […]
A pEBG2T plasmid encoding GST fused to the last 77 residues of PRK2 termed GST-PIF (10 μg) and pCMV5 plasmid expressing Myc-PDK1 wild type or the indicated mutants of PDK1 (10 μg), were co-transfected into a 10 cm diameter dish of 293 cells using a modified calcium phosphate method. […] The gels were either stained with Coomassie blue, or analysed by immunoblotting with anti Myc antibodies.

For the molecule `CC[C@H](C)[C@H](NC(=O)[C@H](Cc1ccc(O)cc1)NC(=O)[C@H](CC(=O)O)NC(=O)[C@H](Cc1ccccc1)NC(=O)[C@H](CC(=O)O)NC(=O)[C@H](CCCNC(=N)N)NC(=O)[C@H](Cc1ccccc1)NC(=O)[C@H](CCSC)NC(=O)[C@H](CCC(=O)O)NC(=O)[C@H](CCC(N)=O)NC(=O)[C@H](CCC(=O)O)NC(=O)[C@H](CCC(=O)O)NC(=O)[C@H](CCC(=O)O)NC(=O)[C@H](CO)NC(=O)[C@H](CC(C)C)NC(=O)[C@@H](NC(=O)[C@H](CCCNC(=N)N)NC(=O)[C@@H]1CCCN1C(=O)[C@H](CCC(=O)O)NC(=O)[C@@H](N)CCCNC(=N)N)[C@@H](C)CC)C(=O)N[C@@H](C)C(=O)N[C@@H](CC(=O)O)C(=O)N[C@@H](Cc1c[nH]c2ccccc12)C(=O)N[C@@H](CS)C(=O)O` [PIFtide] (H-REPRILSEEEQEMFRDFDYIADWC-OH; N-terminus and C-terminus assumed), on PDK1, the “effect on the interaction between PDK1 and 412E-p70 S6K-T2” value is “abolished”.
Turning to “GST-PIF: glutathione S-transferase fused to the last 77 residues of PRK2 (PIF)”, the “complex with wild type PDK1” value in the test with Myc-PDK1 is recorded as “a complex was readily observed”.
